Measured values from patent publication US7601501B2, “Controlling osteogenesis by inhibition of osteogenic suppressors” (The Scripps Research Institute, priority 2006, dated 2009).
Entries after “also recorded” stand apart in the source; their conditions may differ.

Columns and labels:
[1] = system: human mesenchymal stem cells (hMSCs); test: Compound treatment: adipogenic differentiation / cell fate switch of hMSCs; format: cell-based; settings: for differentiation of hMSCs into mature adipocytes: combined treatment with dexamethasone; for adipogenic differentiation of hMSCs promoted by compound: especially in the presence of dexamethasone (DEX); for cell fate switch from osteogenic to adipogenic: hMSCs treated with the OS media
Procedure: Cells were rinsed with PBS twice, fixed in 10% formalin solution for 20 minutes, rinsed with PBS twice and dH2O once, washed with propylene glycol for 5 minutes, and stained with Oil red in propylene glycol (I2722A, Newcomer Supply) for 30 minutes. Cells were then washed with 85% propylene glycol for 5 minutes, rinsed with dH2O 3 times and preserved in 50% glycerol.
(§1) 8-CPT-cAMP, Na (cat# 116812), 5-Iodotubercidin (cat# 407900), Prostaglandin E2 (PGE2, cat# 538904), SB 202190 (cat# 559388) and U0126 (cat# 662005) were purchased from Calbiochem; N6,2′-O-Dibutyryl-cAMP (cat# D0260-5MG), forskolin (cat# F6886), ascorbic acid 2-phosphate (cat# 49752-10G), β-glycerophosphate (G-6251), dexamethasone (D8893), 3-isobutyl-1-methylxanthine (IBMX, I5879) and Insulin (I 9278) were purchased from Sigma/Aldrich/Fluka.
(§2) Since the targeted genes are all positively involved in intracellular cAMP signaling, we tested the effect of two compounds of opposing function on cAMP production on osteogenic differentiation of hMSCs, ADK inhibitor 5-iodotubercidin and ADCY activator forskolin (Cottam, H. B. et al., J Med Chem 36:3424-3430 (1993); de Souza, N. J. et al., Med Res Rev 3:201-219 (1983)). […] ATP has been shown as a ligand for P2RY11 receptor (Communi et al., 1997). […] The present observations are consistent with the conclusion that […] in hMSCs, and vice versa.

[2] = system: human mesenchymal stem cells (hMSCs); test: Compound treatment: OS-induced osteogenic differentiation of hMSCs (ALP / alizarin red staining); format: cell-based; settings: for osteogenic effect of the OS media on hMSCs: compound combined with OS treatment, ALP and/or alizarin red staining
Procedure: as §1, §2

[3] = system: human mesenchymal stem cells (hMSCs); test: Alizarin red staining for calcium phosphate deposits (ECM mineralization, bone cell maturation); format: cell-based; settings: for intensity of alizarin red staining (bone cell maturation), 3+9OS: OS started three days after siRNA transfection and continued for 9 days
Procedure: Cells were rinsed with PBS twice, stained in alizarin red solution (cat# vw3611-2, VWR) for 8 minutes at room temperature, washed with PBS again, fixed in 10% formalin solution (cat# HT-5014, Sigma) for 20 minutes, then rinsed with water and air dried.
Bone cell maturation is accompanied by extracellular matrix (ECM) mineralization (John Bilezikian et al., Principles of bone biology, Vol 1, 2nd edn: Academic Press) (2002)). […] […] These observations are consistent with the conclusion that the targeted genes of the ten effective hit siRNAs not only play inhibitory roles in osteogenic specification of hMSCs, but also in bone cell maturation. […] Furthermore, in osteoporotic patients, the number of adipocytes was increased in the marrow, implying a change of cell fate disposition from osteoblast lineage to adipocyte lineage (Justesen, J. et al., Biogerontology 2:165-171 (2001); Meunier, P. et al., Clin Orthop Relat Res 80:147-154 (1971)). We therefore examined the effect of our hit siRNAs on adipogenic differentiation of hMSCs by combined treatment with an adipogenic inducing cocktail (100 μg/ml IBMX, 1 μM DEX and 10 μg/ml insulin).

CREB = test: Western blot of phospho-CREB in transfected hMSCs; format: cell-based, human; settings: 3 days after transfection, compared to siCon treated or untreated
Procedure: Cell lyses buffer contains 20 mM Tris pH8.0, 1 mM EDTA, 150 mM NaCl and 0.5% NP-40, and before usage, protease inhibitor cocktail (Cat# p8340, Sigma, 1:100 dilution) and phosphatase inhibitor cocktail 2 (Cat# p5726, sigma, 1:100 dilution) were added. Proteins (60 μg/well) were separated in 12% Novex Tris-Glycine gel (Cat# EC6008 box, Invitrogen) and transferred to Nitrocellulose membrane (Cat# LC2001, Invitrogen) using the XCell II blot module system (Cat# EI9051, Invitrogen). The membrane was blocked in 5% milk/PBST for 1 hour at room temperature, incubated over night at 4 degree with primary antibody, washed 3 times with PBST (0.05% Tween 20 in PBS), followed by one hour incubation with secondary antibody in 5% milk/PBST and 3 times wash with PBST at room temperature. For antibody against pCREB however, PBST was substituted with PBS in all steps except for the last one. Antibody-bound proteins were detected utilizing ECL Western blotting detection reagent (Amersham Biosciences).
Anti-phospho-CREB was purchased from Upstate Biotechnology (cat# 06-519); Anti-phospho-p38 was purchased from Cell signaling technology (cat# 9910).
To find out whether CREB (cAMP Responding Element Binding protein), a common downstream effector of cAMP signaling pathway, is involved in mediating cAMP signaling controlled differentiation of hMSCs, we checked the expression level of the active form of CREB proteins in cells 3 days after siP2RY11, siADK, siGNAS, siSLC12a2 or siCon transfection. […] To further examine the role of CREB in osteogenesis and adipogenesis, a synthetic 24-mer CRE decoy oligonucleotide that can compete with endogenous CRE enhancers for binding proteins was transfected into hMSCs (Park, Y. G. et al., J Biol Chem 274:1573-1580 (1999)), which were then subjected to the treatment of osteogenic or adipogenic induction media.

In the case of `Nc1ncnc2c1nc(Sc1ccc(Cl)cc1)n2[C@@H]1O[C@@H]2COP(=O)(O)O[C@H]2[C@H]1O` [8-CPT-cAMP], the “differentiation of hMSCs into mature adipocytes” value [1] is reported as “sufficient to differentiate hMSCs into mature adipocytes”, the “adipogenic differentiation of hMSCs promoted by compound” value [1] is reported as “promoted hMSCs to undergo adipogenic differentiation” and the “cell fate switch from osteogenic to adipogenic” value (“cell fate switch from osteogenic” below) [1] is reported as “could switch cell fate commitment from osteogenic to adipogenic”. For the same compound, the “cell fate switch from osteogenic” value ([1]; listed as CPT-cAMP) was “could switch cell fate determination from osteogenic to adipogenic differentiation”.

In the case of `Nc1ncnc2c1ncn2[C@@H]1O[C@H](COP(=O)(O)OP(=O)(O)OP(=O)(O)O)[C@@H](O)[C@H]1O` [ATP], the “siP2RY11 and siSLC12a2 induced osteogenesis in combination with OS (ALP staining)” value ([2]; OS and ATP added on the third day after siRNA transfection, continued for a week) is reported as “dosage-dependent inhibitory effect”, the “osteogenic effect of the OS media on hMSCs” value (“osteogenic effect” for short) [2] is reported as “inhibited; also recorded: dosage-dependent inhibitory effect” and the “number of cells undergoing adipogenic differentiation” value ([1]; dosage dependent manner) is reported as “slightly increases”.

`CCCC(=O)Nc1ncnc2c1ncn2[C@@H]1O[C@@H]2COP(=O)(O)O[C@H]2[C@H]1OC(=O)CCC` [DB-cAMP, N6,2′-dibutyryl-cAMP] was tested, and the “differentiation of hMSCs into mature adipocytes” value [1] was “sufficient to differentiate hMSCs into mature adipocytes” and the “adipogenic differentiation of hMSCs promoted by compound” value [1] was “promoted hMSCs to undergo adipogenic differentiation”.

For `CC(C)Cn1c(=O)n(C)c(=O)c2[nH]cnc21` [IBMX, 3-isobutyl-1-methylxanthine], the “adipogenic differentiation of hMSCs promoted by compound” value [1] was “promoted hMSCs to undergo adipogenic differentiation” and the “cell fate switch from osteogenic” value [1] was “could switch cell fate determination from osteogenic to adipogenic differentiation”.

`COc1cccc(-c2cc(=O)c3ccccc3o2)c1N` [PD98059] was tested, and the “osteogenic effect” value [2] was “inhibited the osteogenic inducing effect of OS”.

In the case of `CCCCC[C@H](O)/C=C/[C@H]1[C@H](O)CC(=O)[C@@H]1C/C=C\CCCC(=O)O` [PGE2, Prostaglandin E2], the “cell fate switch from osteogenic” value [1] is reported as “could switch cell fate determination from osteogenic to adipogenic differentiation”.

With `Oc1ccc(-c2nc(-c3ccncc3)c(-c3ccc(F)cc3)[nH]2)cc1` [SB202190] the “osteogenic effect” value [2] was “inhibited the osteogenic inducing effect of OS”.

“CCCAGGUCUCCGAUGAACU (siRNA; listed as RNA, chemistry not fully specified) [siBCL212, siRNA targeting BCL2-like 2]” was tested, and the “intensity of alizarin red staining (bone cell maturation), 3+9OS” value (“intensity of alizarin red staining … 3+9OS” below) [3] was “modest enhancement”.

In the case of “CCCGAAAACAUUGCUAGCA (siRNA; listed as RNA, chemistry not fully specified) [siGBDR1, siRNA targeting putative glialblastoma cell differentiation-related]”, the “intensity of alizarin red staining … 3+9OS” value [3] is reported as “dramatically enhanced”.

With “CCUCUUCGUGGCUACAUCU (siRNA; listed as RNA, chemistry not fully specified) [siSLC12a2, siRNA targeting solute carrier family 12, member 2]” the “intensity of alizarin red staining … 3+9OS” value [3] was “dramatically enhanced” and the “level of pCREB protein (Western blot)” value (CREB) was “increased”.

For “GCCACACAAAGCAGCAACA (siRNA; listed as RNA, chemistry not fully specified) [siADK, siRNA targeting adenosine kinase]”, the “intensity of alizarin red staining … 3+9OS” value [3] was “dramatically enhanced”, the “intensity of alizarin red staining, sequential siRNA then OS” value ([3]; siRNA initial 2-4 days followed by OS (2+6OS, 3+5OS, 4+4OS), vs siCon) was “clearly enhanced the intensity of alizarin red staining; also recorded: enhancing effect” and the “level of pCREB protein (Western blot)” value (CREB) was “increased”.

With “GGAGAUCAACAAGCAUUCA (siRNA; listed as RNA, chemistry not fully specified) [siADCY8, siRNA targeting adenylate cyclase 8]” the “intensity of alizarin red staining … 3+9OS” value [3] was “weak enhancement”.

For “UCGAAGAUUGAGGACUACU (siRNA; listed as RNA, chemistry not fully specified) [siGNAS, siRNA targeting GNAS complex locus]”, the “intensity of alizarin red staining … 3+9OS” value [3] was “dramatically enhanced” and the “level of pCREB protein (Western blot)” value (CREB) was “increased”.

In the case of “UGCCAAAGAGGAUGUACAU (siRNA; listed as RNA, chemistry not fully specified) [siTBX3, siRNA targeting T-box 3 (ulnar mammary syndrome)]”, the “intensity of alizarin red staining … 3+9OS” value [3] is reported as “no significant effect”.

For “UGCGAGCCAAGAUGGACAA (siRNA; listed as RNA, chemistry not fully specified) [siKCNT1, siRNA targeting potassium channel, subfamily T, member 1]”, the “intensity of alizarin red staining … 3+9OS” value [3] was “dramatically enhanced”.

With “UGCGGGUGCUCAACGUGGA (siRNA; listed as RNA, chemistry not fully specified) [siP2RY11, siRNA targeting purinergic receptor P2Y, G-protein coupled, 11]” the “intensity of alizarin red staining … 3+9OS” value [3] was “dramatically enhanced” and the “level of pCREB protein (Western blot)” value (CREB) was “increased”.

For “UGUGCUACACAGUCAUUAC (siRNA; listed as RNA, chemistry not fully specified) [siBIRC4, siRNA targeting baculoviral IAP repeat-containing 4]”, the “intensity of alizarin red staining … 3+9OS” value [3] was “weak enhancement”.
